Assay results from the supplement of paper PMC10883282.

Key:
Assay in all cases: relative viability vs DMSO control (72 h) (fraction); higher = more viable cells
A204 = tested on: A204
Summary of the method: (§1)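 Sarcoma cell lines went into 384-well plates at densities chosen to reach 80–90% confluence. After 24 h, each well received 2.5 µl of serially diluted compound, with source plates running from 10 mM to 0.0002 mM, and the plates were kept 72 h at 37 °C, 5% CO2, alongside 0.1% DMSO vehicle and a 5 µM positive control. Relative viability was derived from ATPLite readings as percent growth and averaged over up to triplicate wells. The data were then rescaled so that 1 stands for full and 0 for none.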

G401 = tested on: G401
Summary of the method: as §1

HS729 = tested on: HS729
Summary of the method: as §1

HT1080 = tested on: HT1080
Summary of the method: as §1

KHOS-NP = tested on: KHOS-NP
Summary of the method: as §1

MES-SA = tested on: MES-SA
Summary of the method: as §1

SK-LMS-1 = tested on: SK-LMS-1
Summary of the method: as §1

SW1353 = tested on: SW1353
Summary of the method: as §1

SW684 = tested on: SW684
Summary of the method: as §1

SW872 = tested on: SW872
Summary of the method: as §1

SYO-1 = tested on: SYO-1
Summary of the method: as §1

VA-ES-BJ = tested on: VA-ES-BJ
Summary of the method: as §1

CC(C)NC[C@@H](C(=O)N1CCN(c2ncnc3c2[C@H](C)C[C@H]3O)CC1)c1ccc(Cl)cc1 [Ipatasertib]
Conditions | relative viability
A204, 0.00017 µM | 1.06
A204, 0.00051 µM | 1.08
A204, 0.00152 µM | 1.05
A204, 0.00457 µM | 1.05
A204, 0.01372 µM | 1.05
A204, 0.04115 µM | 0.992
A204, 0.1235 µM | 0.953
A204, 0.3704 µM | 0.751
A204, 1.111 µM | 0.711
A204, 3.333 µM | 0.621
A204, 10 µM | 0.509
G401, 0.00017 µM | 1.03
G401, 0.00051 µM | 1.04
G401, 0.00152 µM | 1.01
G401, 0.00457 µM | 0.956
G401, 0.01372 µM | 0.942
G401, 0.04115 µM | 0.89
G401, 0.1235 µM | 0.863
G401, 0.3704 µM | 0.786
G401, 1.111 µM | 0.707
G401, 3.333 µM | 0.655
G401, 10 µM | 0.613
HS729, 0.00017 µM | 1
HS729, 0.00051 µM | 0.969
HS729, 0.00152 µM | 0.91
HS729, 0.00457 µM | 0.916
HS729, 0.01372 µM | 0.844
HS729, 0.04115 µM | 0.849
HS729, 0.1235 µM | 0.802
HS729, 0.3704 µM | 0.726
HS729, 1.111 µM | 0.643
HS729, 3.333 µM | 0.532
HS729, 10 µM | 0.49
HT1080, 0.00017 µM | 1.1
HT1080, 0.00051 µM | 1.08
HT1080, 0.00152 µM | 1.1
HT1080, 0.00457 µM | 1.05
HT1080, 0.01372 µM | 1.07
HT1080, 0.04115 µM | 1.04
HT1080, 0.1235 µM | 1.1
HT1080, 0.3704 µM | 1.07
HT1080, 1.111 µM | 1.055
HT1080, 3.333 µM | 0.997
HT1080, 10 µM | 0.994
KHOS-NP, 0.00017 µM | 1.1
KHOS-NP, 0.00051 µM | 1.11
KHOS-NP, 0.00152 µM | 1.11
KHOS-NP, 0.00457 µM | 1.09
KHOS-NP, 0.01372 µM | 1.06
KHOS-NP, 0.04115 µM | 1.06
KHOS-NP, 0.1235 µM | 1.067
KHOS-NP, 0.3704 µM | 1.04
KHOS-NP, 1.111 µM | 1.04
KHOS-NP, 3.333 µM | 0.994
KHOS-NP, 10 µM | 0.957
MES-SA, 0.00017 µM | 0.935
MES-SA, 0.00051 µM | 0.904
MES-SA, 0.00152 µM | 0.9385
MES-SA, 0.00457 µM | 0.905
MES-SA, 0.01372 µM | 0.8986
MES-SA, 0.04115 µM | 0.847
MES-SA, 0.1235 µM | 0.751
MES-SA, 0.3704 µM | 0.619
MES-SA, 1.111 µM | 0.467
MES-SA, 3.333 µM | 0.317
MES-SA, 10 µM | 0.24
SK-LMS-1, 0.00017 µM | 0.971
SK-LMS-1, 0.00051 µM | 0.95
SK-LMS-1, 0.00152 µM | 0.96
SK-LMS-1, 0.00457 µM | 1
SK-LMS-1, 0.01372 µM | 0.954
SK-LMS-1, 0.04115 µM | 0.959
SK-LMS-1, 0.1235 µM | 0.909
SK-LMS-1, 0.3704 µM | 0.8304
SK-LMS-1, 1.111 µM | 0.651
SK-LMS-1, 3.333 µM | 0.594
SK-LMS-1, 10 µM | 0.55
SW684, 0.00017 µM | 1.07
SW684, 0.00051 µM | 1.11
SW684, 0.00152 µM | 1.11
SW684, 0.00457 µM | 1.09
SW684, 0.01372 µM | 1.09
SW684, 0.04115 µM | 1.08
SW684, 0.1235 µM | 0.994
SW684, 0.3704 µM | 0.855
SW684, 1.111 µM | 0.664
SW684, 3.333 µM | 0.5598
SW684, 10 µM | 0.49
SW872, 0.00017 µM | 1.01
SW872, 0.00051 µM | 1.04
SW872, 0.00152 µM | 1.01
SW872, 0.00457 µM | 1.01
SW872, 0.01372 µM | 0.922
SW872, 0.04115 µM | 0.91
SW872, 0.1235 µM | 0.843
SW872, 0.3704 µM | 0.712
SW872, 1.111 µM | 0.611
SW872, 3.333 µM | 0.491
SW872, 10 µM | 0.415
SW1353, 0.00017 µM | 1.04
SW1353, 0.00051 µM | 1.05
SW1353, 0.00152 µM | 1.03
SW1353, 0.00457 µM | 1.02
SW1353, 0.01372 µM | 0.991
SW1353, 0.04115 µM | 0.93
SW1353, 0.1235 µM | 0.935
SW1353, 0.3704 µM | 0.862
SW1353, 1.111 µM | 0.864
SW1353, 3.333 µM | 0.781
SW1353, 10 µM | 0.727
SYO-1, 0.00017 µM | 0.95
SYO-1, 0.00051 µM | 0.94
SYO-1, 0.00152 µM | 0.862
SYO-1, 0.00457 µM | 0.821
SYO-1, 0.01372 µM | 0.807
SYO-1, 0.04115 µM | 0.776
SYO-1, 0.1235 µM | 0.719
SYO-1, 0.3704 µM | 0.656
SYO-1, 1.111 µM | 0.636
SYO-1, 3.333 µM | 0.549
SYO-1, 10 µM | 0.504
VA-ES-BJ, 0.00017 µM | 1.07
VA-ES-BJ, 0.00051 µM | 1.04
VA-ES-BJ, 0.00152 µM | 1.03
VA-ES-BJ, 0.00457 µM | 1.022
VA-ES-BJ, 0.01372 µM | 0.955
VA-ES-BJ, 0.04115 µM | 0.8984
VA-ES-BJ, 0.1235 µM | 0.819
VA-ES-BJ, 0.3704 µM | 0.666
VA-ES-BJ, 1.111 µM | 0.492
VA-ES-BJ, 3.333 µM | 0.418
VA-ES-BJ, 10 µM | 0.368
